# According to ChEMBL document CHEMBL1147072, “Synthesis and evaluation of transthyretin amyloidosis inhibitors containing carborane pharmacophores” (Proc Natl Acad Sci U S A, 2007):
# Legend:
# Transthyretin [1] = molecular target: T1, Transthyretin (Homo sapiens, UniProt P02766); experiment: Inhibition of human transthyretin assessed as amyloid fibril formation at pH 4.4 after 72 hrs relative to control; parameters: scale not given: the % may be the effect or the level left
# Transthyretin [2] = molecular target: T1, Transthyretin; experiment: Inhibition of human transthyretin fibril formation at pH 4.4 after 72 hrs
compound,measurement,setting,value
O=C(O)c1ccccc1Nc1cccc(C(F)(F)F)c1 [FLUFENAMIC ACID],Activity,Transthyretin [1],14%
same,IC50,Transthyretin [2],2900 nM
